Experimental data taken from PMC9907135 (Proceedings of the National Academy of Sciences of the …, 2022).
Bridge positions count the residues as written; N and C are the ends. Square brackets hold non-standard residues; d marks the D form. Peptide text beside a SMILES is read from it. * marks the point of attachment. 5FAM = O=C1OC2(c3ccc(O)cc3Oc3cc(O)ccc32)c2ccc(C(=O)*)cc21; R8 = C=CCCCCCC[C@@](C)(N)C(=O)O; S5 = C=CCCC[C@](C)(N)C(=O)O; Nle = CCCC[C@H](N)C(=O)O

Experiments:
PD-L1:PD-1 [1] = target: T1, PD-L1:PD-1 (Homo sapiens, UniProt Q9NZQ7); settings: SPR ABA competition, 10 μM compound, 400 nM PD-1
Target sequence in this assay (Q9NZQ7 18-239): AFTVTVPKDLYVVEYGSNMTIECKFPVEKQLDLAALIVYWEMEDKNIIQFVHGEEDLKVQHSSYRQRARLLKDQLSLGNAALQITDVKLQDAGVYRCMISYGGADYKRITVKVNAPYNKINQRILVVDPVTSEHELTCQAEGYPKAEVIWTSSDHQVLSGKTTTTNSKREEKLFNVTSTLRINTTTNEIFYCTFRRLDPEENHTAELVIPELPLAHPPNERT
PD-L1:PD-1 [2] = target: T1, PD-L1:PD-1; settings: competition ELISA; n = 2
Target sequence in this assay (Q9NZQ7 19-238 limits assumed): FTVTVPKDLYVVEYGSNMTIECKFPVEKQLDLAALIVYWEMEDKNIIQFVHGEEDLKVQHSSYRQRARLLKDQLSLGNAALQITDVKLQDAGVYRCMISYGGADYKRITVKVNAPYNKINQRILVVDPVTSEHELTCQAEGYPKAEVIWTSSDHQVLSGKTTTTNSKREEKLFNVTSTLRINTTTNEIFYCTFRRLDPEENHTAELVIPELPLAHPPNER

PD-L1 = PD-L1 (Homo sapiens, UniProt Q9NZQ7); settings: TR-FRET; n = 3 for FP peptides, n = 2 for BMS-1001
Chain of PD-L1 (Q9NZQ7 18-239): as the sequence (Q9NZQ7 18-239) above

RNF31 UBA domain = RNF31 UBA domain (Homo sapiens, UniProt Q96EP0); test: biochemical
Chain of RNF31 UBA domain (Q96EP0 480-639): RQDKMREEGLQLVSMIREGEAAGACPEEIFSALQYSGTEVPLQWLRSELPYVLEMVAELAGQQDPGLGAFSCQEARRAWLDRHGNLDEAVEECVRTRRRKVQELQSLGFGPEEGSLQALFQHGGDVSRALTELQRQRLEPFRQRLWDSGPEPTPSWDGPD

Expi293 cells [3] = settings: percentage of Helicons in cells after treatment and wash; Expi293 cells 1x10^6 cells/mL, 22 hours, 37°C; washed twice with DPBS; MS quantitation, single-point calibration; n=2, mean ± SD
Expi293 cells [4] = settings: luminescence at Tfinal (22 hours) divided by Tinitial, measure of ATP levels, reflective of cell health

## Cc1cc(CN[C@H](CO)C(=O)O)c(OCc2cccc(C#N)c2)cc1OCc1cccc(-c2ccc3c(c2)OCCO3)c1C [BMS-1001]
PD-L1:PD-1 [1]
  Competition with PD-1 for binding to PD-L1: compete more potently
PD-L1:PD-1 [2]
  Inhibition of PD-L1:PD-1 binding: inhibits PD-L1:PD-1 binding
PD-L1
  PD-L1 dimerization in solution: clear evidence of PD-L1 dimerization

## CC[C@H](C)[C@H](NC(=O)[C@H](C)NC(=O)[C@@H]1CSCC(=O)Nc2ccc(cc2)NC(=O)CSC[C@H](NC(=O)[C@H](CCCNC(=N)N)NC(=O)[C@H](CCC(N)=O)NC(=O)[C@H](CCSC)NC(=O)[C@H](C)NC(=O)[C@@H]2CCCN2C(=O)[C@H](CC(=O)O)NC(C)=O)C(=O)N[C@@H](Cc2ccccc2)C(=O)N[C@@H](CO)C(=O)N[C@@H](C)C(=O)N[C@@H](C)C(=O)N[C@@H](C(C)C)C(=O)N[C@@H](Cc2ccc(O)cc2)C(=O)N1)C(=O)N[C@@H](CO)C(N)=O [FP06655]
RNF31 UBA domain; read-out: RNF31 UBA Binding koff
  koff: 0.052 s⁻¹
RNF31 UBA domain; read-out: RNF31 UBA Binding kon
  kon: 1.4e+06 M⁻¹ s⁻¹

## CCCC[C@H](NC(=O)[C@@H](NC(C)=O)[C@@H](C)CC)C(=O)N[C@@H](C)C(=O)N[C@]1(C)CCCCCCC=CCCC[C@@](C)(C(=O)N[C@@H](CCC(N)=O)C(=O)N[C@@H](Cc2ccc(O)cc2)C(=O)N[C@@H](CC(N)=O)C(N)=O)NC(=O)[C@H](Cc2c[nH]c3ccccc23)NC(=O)[C@H](Cc2ccccc2)NC(=O)[C@H](C)NC(=O)[C@H](C)NC(=O)[C@H](CCC(N)=O)NC(=O)[C@H](Cc2ccc(O)cc2)NC1=O [FP08024] (Ac-I[Nle]A[R8]YQAAFW[S5]QYN-NH2; staple 4-11)
Expi293 cells [3]
  Helicon in cells ± SD (%): 6.5 ± 0.5%
Expi293 cells [4]
  CellTiter-Glo fold change ± SD: 1.2 ± 0.00

## CC(C)C[C@H](NC(=O)[C@H](C)NC(=O)CNC(=O)[C@H](CCCCN)NC(=O)[C@H](CCCNC(=N)N)NC(=O)[C@H](C)NC(=O)[C@H](Cc1ccccc1)NC(=O)[C@H](CCCNC(=N)N)NC(=O)[C@H](CCC(N)=O)NC(=O)c1ccc2c(c1)C(=O)OC21c2ccc(O)cc2Oc2cc(O)ccc21)C(=O)N[C@@H](CCCNC(=N)N)C(=O)N[C@@H](CCC(N)=O)C(=O)N[C@@H](CCCCN)C(=O)N[C@@H](CC(N)=O)C(=O)N[C@H](C(N)=O)C(C)C [FP47831, reference compound] (5FAM-QRFARKGALRQKNV-NH2)
Expi293 cells [3]
  Helicon in cells ± SD (%): 0.0 ± 0.0%
Expi293 cells [4]
  CellTiter-Glo fold change ± SD: 1.1 ± 0.02
